Measured values taken from paper PMC12152147, “DDB1 engagement defines the selectivity of S656 analogs for cyclin K degradation over CDK inhibition” (EMBO Reports, 2025).
Read-outs that look alike come from different tables or passages of the source.

What was measured:
CDK9/CyclinT = molecular target: T1, CDK9/CyclinT (Homo sapiens, UniProt P50750); assay: CDK9/CyclinT in vitro kinase activity, single concentration 1 μM; assay type: biochemical; settings: single concentration 1 μM
T1 construct: purchased BPS Bioscience 79628
T1 sequence (P50750 whole entry): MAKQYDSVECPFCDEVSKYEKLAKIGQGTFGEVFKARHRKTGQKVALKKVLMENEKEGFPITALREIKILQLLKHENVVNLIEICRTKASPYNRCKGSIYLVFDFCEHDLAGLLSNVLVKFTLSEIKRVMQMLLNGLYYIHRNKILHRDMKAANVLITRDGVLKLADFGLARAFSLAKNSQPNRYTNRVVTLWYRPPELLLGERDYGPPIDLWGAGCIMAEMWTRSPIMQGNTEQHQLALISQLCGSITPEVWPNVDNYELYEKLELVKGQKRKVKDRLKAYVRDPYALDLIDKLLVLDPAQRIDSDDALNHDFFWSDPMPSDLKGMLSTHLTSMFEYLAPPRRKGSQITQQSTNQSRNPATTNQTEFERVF
T1 sequence (O60563 whole entry partner): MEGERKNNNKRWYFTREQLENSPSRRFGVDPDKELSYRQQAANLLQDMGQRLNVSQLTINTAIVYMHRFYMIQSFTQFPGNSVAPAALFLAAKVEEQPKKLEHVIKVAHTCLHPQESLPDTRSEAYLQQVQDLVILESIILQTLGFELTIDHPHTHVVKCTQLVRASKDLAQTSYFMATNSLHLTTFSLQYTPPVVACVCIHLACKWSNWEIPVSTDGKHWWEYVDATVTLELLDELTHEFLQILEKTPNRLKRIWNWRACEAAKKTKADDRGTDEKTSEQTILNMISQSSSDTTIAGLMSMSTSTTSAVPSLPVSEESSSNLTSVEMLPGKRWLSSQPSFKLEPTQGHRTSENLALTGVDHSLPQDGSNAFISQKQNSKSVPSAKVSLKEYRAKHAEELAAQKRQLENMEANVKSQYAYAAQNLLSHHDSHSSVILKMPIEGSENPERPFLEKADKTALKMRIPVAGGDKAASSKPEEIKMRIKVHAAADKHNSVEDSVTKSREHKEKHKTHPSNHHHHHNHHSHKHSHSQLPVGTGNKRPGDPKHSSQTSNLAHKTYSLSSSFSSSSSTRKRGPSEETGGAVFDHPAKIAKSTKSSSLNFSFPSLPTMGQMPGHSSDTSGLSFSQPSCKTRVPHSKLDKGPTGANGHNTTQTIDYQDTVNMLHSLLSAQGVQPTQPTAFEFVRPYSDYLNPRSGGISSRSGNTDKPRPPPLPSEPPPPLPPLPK
Description: (§1) Kinase activity was assessed using the kinase assay kits from BPS Bioscience for CDK1, CDK9 and CDK12 with Kinase Glo MAX in duplicates. Compounds were tested at a single concentration of 1 μM for CDK1 and CDK9 activity, and in a dilution ranging from 0.64 nM to 50 μM for CDK12 activity. Chemiluminescence was read using the Neo Synergy BioTek plate reader.

cyclin KeGFP = assay: Cyclin KeGFP reporter system (eGFP/mCherry MFI by flow cytometry);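 also: 10 μM compound for 3 h relative to DMSO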; assay type: cell-based, H. sapiens; settings: cyclin K-eGFP reporter
Method in brief: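 Degradation read as eGFP-to-mCherry MFI ratio relative to DMSO controls, from flow cytometry of the selected G7 clone of OCI-AML5 cells transduced with the cyclin KeGFP reporter.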

[1] = system: OCI-AML5 cells expressing shRNA targeting CUL4A or CUL4B; assay: Dose response in OCI-AML5 expressing shRNAs targeting CUL4A, CUL4B or control; assay type: cell-based, H. sapiens; settings: ratio of IC50 in shCUL4A vs shCTRL OCI-AML5 cells
[2] = system: OCI-AML5 cells expressing shRNAs targeting CDK1, 2, 4, 7, 9, cyclin K; assay: Dose response in OCI-AML5 expressing shRNAs targeting CDK1, 2, 4, 7, 9, cyclin K or control; assay type: cell-based, H. sapiens; settings: for IC50: Homo sapiens; for class based on cellular selectivity: IC50 in shRNA OCI-AML5 cells and cyclin KeGFP degradation; for Class: class from shRNA IC50 profile and cyclin K-eGFP degradation
CDK1 = molecular target: T2, CDK1 (Homo sapiens, UniProt P06493); assay: CDK1 in vitro kinase activity, single concentration 1 μM; assay type: biochemical; settings: single concentration 1 μM
T2 construct: purchased BPS Bioscience 79597
T2 sequence (P06493 whole entry): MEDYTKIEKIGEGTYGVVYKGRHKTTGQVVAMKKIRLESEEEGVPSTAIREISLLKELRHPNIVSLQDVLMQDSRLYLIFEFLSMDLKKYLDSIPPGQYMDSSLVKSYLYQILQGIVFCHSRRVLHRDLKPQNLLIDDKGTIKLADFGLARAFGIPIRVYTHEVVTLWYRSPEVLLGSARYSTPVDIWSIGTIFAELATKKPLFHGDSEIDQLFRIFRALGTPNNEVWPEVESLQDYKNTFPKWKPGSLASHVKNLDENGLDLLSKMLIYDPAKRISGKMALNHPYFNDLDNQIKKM
T2 sequence (P14635 whole entry partner): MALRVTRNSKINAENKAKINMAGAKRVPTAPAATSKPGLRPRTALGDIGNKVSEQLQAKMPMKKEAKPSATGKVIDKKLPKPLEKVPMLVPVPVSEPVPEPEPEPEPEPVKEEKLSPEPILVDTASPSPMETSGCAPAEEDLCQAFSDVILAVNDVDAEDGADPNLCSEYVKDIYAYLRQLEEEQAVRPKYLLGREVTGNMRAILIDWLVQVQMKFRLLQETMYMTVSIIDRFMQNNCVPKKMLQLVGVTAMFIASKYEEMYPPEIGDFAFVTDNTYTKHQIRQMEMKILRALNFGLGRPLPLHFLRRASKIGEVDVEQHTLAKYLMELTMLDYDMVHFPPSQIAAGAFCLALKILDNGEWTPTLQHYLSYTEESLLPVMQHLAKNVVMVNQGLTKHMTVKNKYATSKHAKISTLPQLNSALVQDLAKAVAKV
Description: as §1

OCI-AML5 cells = assay: Dose-response proliferative assay in OCI-AML5 (4 days, CellTiterGlo); assay type: cell-based, H. sapiens; settings: for IC50: Homo sapiens
Method in brief: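 Viability assessed after 4 days of compound exposure at 37 °C, 5% CO2. Compounds tested as 8 dilutions (1:4, 10 μM to 0.5 nM) on 300 OCI-AML5 cells/well grown in αMEM with 10% heat-inactivated FBS and 10 ng/mL GM-CSF.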

[3] = system: OCI-AML5 and U937 cell lines; assay: Synergistic interaction assay with THZ531 (Bliss score); assay type: cell-based
Excerpt: 3. It may be worthwhile to investigate whether the CDK12/13 inhibitor THZ531 could synergize with S656 or analogues like UOM-005636 that specifically degrade Cyclin K, in combination cytotoxicity assays, assessing selective suppression of AML viability over normal cells. Both […]
inhibiting CDK12, and S656 / UOM-005636 by degrading Cyclin K. Similar synergistic effects were observed by Katharina et al., where THZ531 promoted prostate ca ncer cell sensitivity to androgen deprivation therapy [Frei, K et. al. Inhibition of the Cyclin K-CDK12 complex induces DNA damage and increases the effect of androgen deprivation therapy in prostate cancer. Int J […]
Indeed, THZ531 is a covalent CDK12/13 inhibitor that specifically binds to the kinase pocket of […]
pocket of CDK12, and that pre-incubation with THZ531 competes with S656-mediated Cyclin K degradation (see Figure 5E).
We performed a synergistic interaction assay between THZ531 and S656 or UOM-005636 in OCI-AML5 and U937 cell lines (see below). […]
interactions between THZ531 and our cyclin K degrader molecules. This is likely due to both drugs competing for the same binding site, rather than acting through complementary pathways. […]

primary AML specimens = assay: Dose-response assays in primary AML specimens (6 days, CellTiterGlo); assay type: cell-based, human; settings: Homo sapiens, 144 h, read-out: median IC50 in a panel of 40 primary AMLs, 6 days
Description: Freshly thawed primary AML specimens were used for chemical screens. Cryopreserved cells were thawed at 37 °C in IMDM containing 20% FBS and DNase I (100 μg/mL). Cells were resuspended in IMDM supplemented with 15% BIT (BSA, insulin, transferrin; StemCell Technologies), 100 ng/mL SCF, 50 ng/mL FLT3L, 20 ng/mL IL3, 20 ng/mL G-CSF, 10^−4 mol/L b-mercaptoethanol, gentamicin (50 μg/mL), ciprofloxacin (10 μg/mL), SR1 (500 nmol/L) and UM729 (500 nmol/L). Cells were plated in 384-well white plates, 5000 cells per well in 50 μL. Compounds were dissolved in DMSO, diluted in media immediately before use and added to seeded cells at the unique concentration of 1 μM. Control wells received DMSO (0.1%) only. Cell viability was evaluated after 6 days in culture using the CellTiterGlo assay according to the manufacturer’s instruction. Percentage of inhibition for dose response curves was calculated as 100 – (100 × (mean luminescence [compound]/mean luminescence [DMSO])). Dose response curves were generated using nonlinear regression in GraphPad Prism version.
Dose-response assays in primary AML specimens were performed as in chemical screen (see above) with the exception that compounds were tested in serial dilution (8 dilutions, 1:4, 10 μM down to 0.5 nM). Dose-response assays in OCI-AML5 cell line were conducted similarly with the following modifications: 300 cells per well were seeded in 50 μL of cell line media and cell viability was evaluated after 4 days in culture.

[4] = molecular target: T3, OCI-AML5 total protein extracts (cyclin K, CDKs, DDB1) (Homo sapiens, UniProt P45844); assay: Pull-down with immobilized probes and quantitative mass spectrometry; assay type: binding, H. sapiens; settings: protein ABCG1 (P45844)
T3 construct: endogenous in cells; host or cells: OCI-AML5 total protein extract
Description: (§2) Probe compounds were immobilized through their terminal amine on NHS-sepharose beads as previously described (Médard et al, [2015]). The prepared beads were then washed in PBS and equilibrated in Triton X-100 buffer. For each replicate, 1–2 mg of total proteins (2 mg/ml) were incubated end-over-end with 25 μl of beads overnight at 4 °C in low protein binding microtubes (Sarstedt). The samples were then washed twice in Triton X-100 buffer, transferred to new microtubes and further washed six times in PBS including another microtube transfer at the last wash. Beads pellets were resuspended in 50 mM ammonium bicarbonate and subjected to reduction, alkylation and tryptic digest as described above. Peptides were separated on an home-made reversed-phase column (150-μm i.d. by 200 mm) with a 56-min gradient from 10 to 30% ACN-0.2% FA and a 600-nl/min flow rate on a Easy nLC-1200 connected to a Exploris 480 (ThermoFisher Scientific, San Jose, CA). Each full MS spectrum acquired at a resolution of 120,000 was followed by tandem-MS (MS-MS) spectra acquisition on the most abundant multiply charged precursor ions for 3 s. Tandem-MS experiments were performed using higher energy collision dissociation (HCD) at a collision energy of 34%. The data were processed using PEAKS X Pro (Bioinformatics Solutions, Waterloo, ON) and a Uniprot human database (20366 entries). Mass tolerances on precursor and fragment ions were 10 ppm and 0.01 Da, respectively. Fixed modification was carbamidomethyl (C). Variable selected posttranslational modifications were acetylation (N-ter), oxidation (M), deamidation (NQ), phosphorylation (STY). The data were visualized with Scaffold 5.0 (protein threshold, 99%, with at least 2 peptides identified and a false-discovery rate [FDR] of 1% for peptides).
(§3) Differential Enrichment analysis of Proteomics data (DEP) package (Zhang et al, [2018]) in R was used to analyze the data (excluding proteins identified based on a single peptide), including data filtering, normalization, imputation of missing values and statistical testing of differentially expressed proteins.

[5] = molecular target: T4, OCI-AML5 total protein extracts (cyclin K, CDKs, DDB1) (Homo sapiens, UniProt Q86UQ4); assay: as above; assay type: binding, H. sapiens; settings: protein ABCA13 (Q86UQ4)
T4 construct: endogenous in cells; host or cells: OCI-AML5 total protein extract
Description: as §2, §3

[6] = molecular target: T5, OCI-AML5 total protein extracts (cyclin K, CDKs, DDB1) (Homo sapiens, UniProt Q6UXT9); assay: as above; assay type: binding, H. sapiens; settings: protein ABHD15 (Q6UXT9)
T5 construct: endogenous in cells; host or cells: OCI-AML5 total protein extract
T5 sequence (Q6UXT9 24-468): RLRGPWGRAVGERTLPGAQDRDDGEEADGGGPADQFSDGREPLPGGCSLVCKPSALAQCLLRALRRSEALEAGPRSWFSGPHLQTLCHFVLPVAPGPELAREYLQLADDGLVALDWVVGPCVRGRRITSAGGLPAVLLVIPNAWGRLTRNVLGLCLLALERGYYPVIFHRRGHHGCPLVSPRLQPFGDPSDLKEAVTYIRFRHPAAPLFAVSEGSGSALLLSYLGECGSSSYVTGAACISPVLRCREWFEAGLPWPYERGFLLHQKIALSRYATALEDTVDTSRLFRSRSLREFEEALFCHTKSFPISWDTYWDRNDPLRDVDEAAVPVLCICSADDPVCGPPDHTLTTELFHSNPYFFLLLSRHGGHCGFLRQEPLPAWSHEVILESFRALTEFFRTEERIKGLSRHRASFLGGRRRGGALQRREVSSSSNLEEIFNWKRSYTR
Description: as §2, §3

[7] = molecular target: T6, OCI-AML5 total protein extracts (cyclin K, CDKs, DDB1) (Homo sapiens, UniProt P21439); assay: as above; assay type: binding, H. sapiens; settings: protein ABCB4 (P21439)
T6 construct: endogenous in cells; host or cells: OCI-AML5 total protein extract
T6 sequence (P21439 whole entry): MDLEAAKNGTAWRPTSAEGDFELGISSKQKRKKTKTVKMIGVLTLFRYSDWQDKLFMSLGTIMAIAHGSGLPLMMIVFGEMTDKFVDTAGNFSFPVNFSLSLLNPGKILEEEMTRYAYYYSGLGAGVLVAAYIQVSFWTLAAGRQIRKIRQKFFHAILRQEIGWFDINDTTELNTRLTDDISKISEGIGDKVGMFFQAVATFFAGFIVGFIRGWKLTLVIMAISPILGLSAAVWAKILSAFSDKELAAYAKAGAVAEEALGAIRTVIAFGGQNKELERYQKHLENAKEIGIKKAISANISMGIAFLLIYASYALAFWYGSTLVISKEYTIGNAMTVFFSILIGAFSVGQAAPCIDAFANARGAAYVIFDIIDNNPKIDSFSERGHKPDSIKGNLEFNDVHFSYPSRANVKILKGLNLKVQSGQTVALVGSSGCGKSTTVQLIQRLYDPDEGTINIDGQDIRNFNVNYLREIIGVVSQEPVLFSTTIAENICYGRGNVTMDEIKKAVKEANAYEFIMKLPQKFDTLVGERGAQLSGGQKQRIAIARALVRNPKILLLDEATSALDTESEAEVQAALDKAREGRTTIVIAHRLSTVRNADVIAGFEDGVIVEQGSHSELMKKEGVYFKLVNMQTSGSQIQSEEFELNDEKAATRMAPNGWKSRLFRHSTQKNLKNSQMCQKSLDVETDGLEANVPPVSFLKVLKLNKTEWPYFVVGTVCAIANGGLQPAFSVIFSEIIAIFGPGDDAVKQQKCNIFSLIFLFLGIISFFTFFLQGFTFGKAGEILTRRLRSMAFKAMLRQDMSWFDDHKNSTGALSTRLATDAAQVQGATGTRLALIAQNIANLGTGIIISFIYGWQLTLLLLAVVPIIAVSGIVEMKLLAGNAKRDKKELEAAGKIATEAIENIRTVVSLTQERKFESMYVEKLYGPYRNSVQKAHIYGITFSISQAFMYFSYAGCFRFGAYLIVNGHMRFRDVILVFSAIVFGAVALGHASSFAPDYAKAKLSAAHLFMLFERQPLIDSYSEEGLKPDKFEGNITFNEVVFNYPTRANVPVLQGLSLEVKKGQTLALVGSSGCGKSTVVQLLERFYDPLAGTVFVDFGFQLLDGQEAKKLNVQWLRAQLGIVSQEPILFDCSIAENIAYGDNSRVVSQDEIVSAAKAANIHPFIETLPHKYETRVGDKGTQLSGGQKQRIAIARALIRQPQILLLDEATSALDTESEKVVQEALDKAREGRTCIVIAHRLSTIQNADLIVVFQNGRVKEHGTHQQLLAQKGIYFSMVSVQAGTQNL
Description: as §2, §3

[8] = molecular target: T7, OCI-AML5 total protein extracts (cyclin K, CDKs, DDB1) (Homo sapiens, UniProt Q96IU4); assay: as above; assay type: binding, H. sapiens; settings: protein ABHD14B (Q96IU4)
T7 construct: endogenous in cells; host or cells: OCI-AML5 total protein extract
T7 sequence (Q96IU4 1-210): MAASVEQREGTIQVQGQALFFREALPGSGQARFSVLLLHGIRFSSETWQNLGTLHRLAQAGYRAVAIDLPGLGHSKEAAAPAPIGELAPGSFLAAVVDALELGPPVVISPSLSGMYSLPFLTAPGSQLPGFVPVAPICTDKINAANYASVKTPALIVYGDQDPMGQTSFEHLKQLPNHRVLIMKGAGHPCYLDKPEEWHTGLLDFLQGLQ
Description: as §2, §3

[9] = OCI-AML-5, OCI-AML5 expressing shRNA CCNK (cyclin K), read-out: IC50 shRNA CCNK
[10] = OCI-AML-5, OCI-AML5 expressing shRNA CDK1, read-out: IC50 shRNA CDK1
[11] = OCI-AML-5, OCI-AML5 expressing shRNA CDK2, read-out: IC50 shRNA CDK2
[12] = OCI-AML-5, OCI-AML5 expressing shRNA CDK4, read-out: IC50 shRNA CDK4
[13] = OCI-AML-5, OCI-AML5 expressing shRNA CDK7, read-out: IC50 shRNA CDK7
[14] = OCI-AML-5, OCI-AML5 expressing shRNA CDK9, read-out: IC50 shRNA CDK9
[15] = OCI-AML-5, OCI-AML5 cells, read-out: IC50 in AML5
[16] = OCI-AML-5, 96 h, 4 days incubation, read-out: IC50 OCI-AML5

Compound	inhibition at 1 µM (CDK9/CyclinT) [%]	% degradation cyclin K-eGFP (cyclin KeGFP) [%]	Ratio shCUL4A/shCTRL [1]	IC50 [2, 9] [nM]	IC50 [2, 10] [nM]	IC50 [2, 11] [nM]	IC50 [2, 12] [nM]	IC50 [2, 13] [nM]	IC50 [2, 14] [nM]	class based on cellular selectivity [2]	Class [2]	inhibition at 1 µM (CDK1) [%]	IC50 (OCI-AML5 cells; [15]) [nM]	IC50 (OCI-AML5 cells; [16]) [nM]	other results
O=C(Cc1ccc(N2CCCC2)cc1)Nc1ncc(SCc2cccnc2)s1 [UOM-005608]	54	77	2.84	45.2	160	180	160	170	125	Class I (effective cyclin K MGDs (decreased IC50 in cyclin K depleted cells only, and >65% degradation of cyclin KeGFP))	1	63	152	–	–
CC(=O)N1CCN(c2ccc(CC(=O)Nc3ncc(SCc4cccnc4)s3)cc2)CC1 [UOM-005614]	84	0	0.67	1370	648	1720	2150	1400	743	Class II	2	43	1730	–	–
O=C(Cc1ccc(-c2ccccn2)cc1)Nc1ncc(SCc2cccnc2)s1 [UOM-005636]	57	80	2.3	21.7	112	142	140	140	101	Class I (effective cyclin K MGDs (decreased IC50 in cyclin K depleted cells only, and >65% degradation of cyclin KeGFP))	1	69	–	85	synergistic interaction with THZ531 (Bliss score) [3]: moderate to very low synergistic; IC50 (primary AML specimens): 154 nM; times more potent than S656 (OCI-AML5 cells; OCI-AML5 cell line and panel of 40 primary AMLs): 8
CN(CCOCCOCCN)c1ccc(CC(=O)Nc2nnc(SCc3cccnc3)s2)cc1 [UOM-005839]	–	–	–	–	–	–	–	–	–	–	–	–	–	> 10000	UOM-005839_centered ([4]; centered abundance): -1.3; UOM-005839_vs_Beads_ratio ([4]; immobilized probe vs beads): 1.31; UOM-005839_centered ([5]; centered abundance): 0.126; UOM-005839_vs_Beads_ratio ([5]; immobilized probe vs beads): -0.0556; UOM-005839_centered ([6]; centered abundance): 0.886; UOM-005839_vs_Beads_ratio ([6]; immobilized probe vs beads): 4.56; UOM-005839_centered ([7]; centered abundance): 0.902; UOM-005839_vs_Beads_ratio ([7]; immobilized probe vs beads): -2; UOM-005839_centered ([8]; centered abundance): 0.505; UOM-005839_vs_Beads_ratio ([8]; immobilized probe vs beads): 3.62
